Measurements published in ChEMBL document CHEMBL5724914, “Linking interpersonal differences in gut microbiota composition and drug biotransformation activity” (2024).

Tests used:
[1] = (§1) The drug is tested on Z-029 corresponding to rat gut metagenome with ENA study accession number: PRJEB37062 and ENA sample accession number: ERS12561828 for biotransformation under anaerobic condition. The drug concentrations were measured over 9 timepoints collected between 0 and 24 hours of incubation by liquid-chromatography-coupled mass spectrometry (LC–MS); conditions: 2 µM
[2] = as §1, with “on Z-024” for “on Z-029”, “to pig” for “to rat”, “number: ERS12561823” for “number: ERS12561828”; conditions: 2 µM
[3] = human gut metagenome, 24 h, 2 µM
[4] = as §1, with “on WLS-086” for “on Z-029”, “to human” for “to rat”, “number: ERS12561752” for “number: ERS12561828”; conditions: 2 µM
[5] = human gut metagenome, 24 h, 2 µM; remark: listed apart in the source
[6] = human gut metagenome, 24 h, 2 µM; remark: listed apart in the source
[7] = human gut metagenome, 24 h, 2 µM; remark: listed apart in the source
[8] = human gut metagenome, 24 h, 2 µM; remark: listed apart in the source
[9] = as §1, with “on WLS-350” for “on Z-029”, “to human” for “to rat”, “number: ERS12561789” for “number: ERS12561828”; conditions: 2 µM
[10] = as §1, with “Z-008” for “Z-029”, “to” for “to rat gut”, “ERS12561808” for “ERS12561828”; conditions: 2 µM
[11] = as §1, with “Z-007” for “Z-029”, “ERS12561807” for “ERS12561828”; conditions: 2 µM
[12] = as §1, with “on Z-003” for “on Z-029”, “to pig” for “to rat”, “number: ERS12561803” for “number: ERS12561828”; conditions: 2 µM
[13] = human gut metagenome, 24 h, 2 µM; remark: listed apart in the source
[14] = as §1, with “Z-012” for “Z-029”, “to” for “to rat gut”, “ERS12561812” for “ERS12561828”; conditions: 2 µM
[15] = human gut metagenome, 24 h, 2 µM; remark: listed apart in the source
[16] = as §1, with “on WLS-069” for “on Z-029”, “to human” for “to rat”, “number: ERS12561748” for “number: ERS12561828”; conditions: 2 µM
[17] = human gut metagenome, 24 h, 2 µM; remark: listed apart in the source
[18] = as §1, with “Z-023” for “Z-029”, “to” for “to rat gut”, “ERS12561822” for “ERS12561828”; conditions: 2 µM
[19] = human gut metagenome, 24 h, 2 µM; remark: listed apart in the source
[20] = human gut metagenome, 24 h, 2 µM; remark: listed apart in the source
Also: call rule not given here.

Row | Structure (SMILES) | Bacterial Biotransformation [1] | Bacterial Biotransformation [2] | Bacterial Biotransformation [3] | Bacterial Biotransformation [4] | Bacterial Biotransformation [5] | Bacterial Biotransformation [6] | Bacterial Biotransformation [7] | Bacterial Biotransformation [8] | Bacterial Biotransformation [9] | Bacterial Biotransformation [10] | Bacterial Biotransformation [11] | Bacterial Biotransformation [12] | Bacterial Biotransformation [13] | Bacterial Biotransformation [14] | Bacterial Biotransformation [15] | Bacterial Biotransformation [16] | Bacterial Biotransformation [17] | Bacterial Biotransformation [18] | Bacterial Biotransformation [19] | Bacterial Biotransformation [20]
1 | COc1ccc2[nH]c([S+]([O-])Cc3ncc(C)c(OC)c3C)nc2c1 (stereo not given) [OMEPRAZOLE] | Compound metabolized | Compound NOT metabolized | Compound metabolized | Compound metabolized | Compound metabolized | Compound metabolized | Compound metabolized | Compound metabolized | Compound metabolized | Compound metabolized | Compound NOT metabolized | Compound NOT metabolized | Compound metabolized | Compound NOT metabolized | Compound metabolized | Compound metabolized | Compound metabolized | Compound NOT metabolized | Compound metabolized | Compound metabolized
2 | O=C(O)CCc1nc(-c2ccccc2)c(-c2ccccc2)o1 [OXAPROZIN] | Compound NOT metabolized | Compound NOT metabolized | Compound metabolized | Compound metabolized | Compound metabolized | Compound NOT metabolized | Compound metabolized | Compound metabolized | Compound metabolized | Compound NOT metabolized | Compound NOT metabolized | Compound metabolized | Compound metabolized | Compound NOT metabolized | Compound NOT metabolized | Compound metabolized | Compound NOT metabolized | Compound metabolized | Compound metabolized | Compound metabolized
3 | CC(C)(C)NC[C@H](O)COc1ccccc1C1CCCC1.CC(C)(C)NC[C@H](O)COc1ccccc1C1CCCC1.O=S(=O)(O)O [PENBUTOLOL SULFATE] | Compound NOT metabolized | Compound metabolized | Compound metabolized | Compound metabolized | Compound metabolized | Compound metabolized | Compound metabolized | Compound metabolized | Compound metabolized | Compound NOT metabolized | Compound NOT metabolized | Compound metabolized | Compound metabolized | Compound NOT metabolized | Compound metabolized | Compound metabolized | Compound metabolized | Compound metabolized | Compound metabolized | Compound metabolized
4 | COc1ccccc1OCC(O)CN1CCN(CC(=O)Nc2c(C)cccc2C)CC1 (stereo not given) [RANOLAZINE] | Compound NOT metabolized | Compound NOT metabolized | Compound NOT metabolized | Compound metabolized | Compound NOT metabolized | Compound NOT metabolized | Compound NOT metabolized | Compound NOT metabolized | Compound NOT metabolized | Compound NOT metabolized | Compound NOT metabolized | Compound metabolized | Compound NOT metabolized | Compound NOT metabolized | Compound NOT metabolized | Compound NOT metabolized | Compound NOT metabolized | Compound metabolized | Compound NOT metabolized | Compound NOT metabolized

Further lines, results first:

Row | Bacterial Biotransformation [1] | Bacterial Biotransformation [2] | Bacterial Biotransformation [3] | Bacterial Biotransformation [4] | Bacterial Biotransformation [5] | Bacterial Biotransformation [6] | Bacterial Biotransformation [7] | Bacterial Biotransformation [8] | Bacterial Biotransformation [9] | Bacterial Biotransformation [10] | Bacterial Biotransformation [11] | Bacterial Biotransformation [12] | Bacterial Biotransformation [13] | Bacterial Biotransformation [14] | Bacterial Biotransformation [15] | Bacterial Biotransformation [16] | Bacterial Biotransformation [17] | Bacterial Biotransformation [18] | Bacterial Biotransformation [19] | Bacterial Biotransformation [20] | Structure (SMILES)
5 | Compound NOT metabolized | Compound NOT metabolized | Compound NOT metabolized | Compound NOT metabolized | Compound NOT metabolized | Compound NOT metabolized | Compound NOT metabolized | Compound NOT metabolized | Compound NOT metabolized | Compound NOT metabolized | Compound NOT metabolized | Compound NOT metabolized | Compound NOT metabolized | Compound NOT metabolized | Compound NOT metabolized | Compound NOT metabolized | Compound NOT metabolized | Compound NOT metabolized | Compound NOT metabolized | Compound NOT metabolized | CCOc1ccc(NC(C)=O)cc1 [PHENACETIN]
6 | Compound metabolized | Compound metabolized | Compound metabolized | Compound metabolized | Compound metabolized | Compound metabolized | Compound metabolized | Compound metabolized | Compound metabolized | Compound metabolized | Compound metabolized | Compound metabolized | Compound metabolized | Compound metabolized | Compound metabolized | Compound metabolized | Compound metabolized | Compound metabolized | Compound metabolized | Compound NOT metabolized | Nc1ccc(/N=N/c2ccccc2)c(N)n1 [PHENAZOPYRIDINE]
7 | Compound metabolized | Compound NOT metabolized | Compound metabolized | Compound metabolized | Compound metabolized | Compound metabolized | Compound metabolized | Compound metabolized | Compound metabolized | Compound metabolized | Compound NOT metabolized | Compound metabolized | Compound metabolized | Compound metabolized | Compound metabolized | Compound metabolized | Compound metabolized | Compound metabolized | Compound metabolized | Compound metabolized | CC(C(=O)O)c1ccc2c(c1)Cc1cccnc1O2 (stereo not given) [PRANOPROFEN]
8 | Compound NOT metabolized | Compound metabolized | Compound NOT metabolized | Compound metabolized | Compound NOT metabolized | Compound NOT metabolized | Compound metabolized | Compound metabolized | Compound NOT metabolized | Compound NOT metabolized | Compound NOT metabolized | Compound NOT metabolized | Compound NOT metabolized | Compound NOT metabolized | Compound NOT metabolized | Compound NOT metabolized | Compound NOT metabolized | Compound NOT metabolized | Compound NOT metabolized | Compound NOT metabolized | CCc1nc(N)nc(N)c1-c1ccc(Cl)cc1 [PYRIMETHAMINE]
